Laboratory results as given in PMC5594493, “Antiproliferative factor (APF) binds specifically to sites within the cytoskeleton-associated protein 4 (CKAP4) extracellular domain” (BMC Biochemistry, 2017).

Molecular target: T1, CKAP4_127–602 (Homo sapiens, UniProt Q07065)
T1 construct: encompassing only the extracellular domain (Aa 127–602) tagged at the C-terminus with a His-tag (CKAP4_127–602); His-tag (C); made in house; host or cells: E. coli BL21(DE3)pLysS
T1 sequence (Q07065 127-602): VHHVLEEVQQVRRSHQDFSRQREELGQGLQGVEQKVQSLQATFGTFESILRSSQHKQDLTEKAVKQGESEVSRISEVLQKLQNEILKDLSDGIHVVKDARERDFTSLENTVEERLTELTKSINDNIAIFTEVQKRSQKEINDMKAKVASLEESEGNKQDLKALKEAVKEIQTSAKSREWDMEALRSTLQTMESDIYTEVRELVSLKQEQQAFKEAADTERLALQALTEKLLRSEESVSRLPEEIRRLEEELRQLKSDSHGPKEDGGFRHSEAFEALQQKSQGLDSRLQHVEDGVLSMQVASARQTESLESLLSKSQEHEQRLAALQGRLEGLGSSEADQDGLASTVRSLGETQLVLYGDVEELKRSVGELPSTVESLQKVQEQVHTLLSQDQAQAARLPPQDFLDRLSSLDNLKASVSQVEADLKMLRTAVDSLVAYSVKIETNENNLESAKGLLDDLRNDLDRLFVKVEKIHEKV
Experiment: SPR, CKAP4_127–602 as immobilized ligand
Assay type: binding
Details: CKAP4_127–602 immobilized on NTA chip
Experimental: All SPR experiments were performed on a Biacore X-100 instrument (GE Healthcare) with the chip surface at 25 °C using PBS containing 0.01% Tween-20 as running buffer. CKAP4 recombinant proteins were immobilized individually either by Ni^2+/nitrilotriacetic acid (NTA) chelation on Sensor Chip NTA or by amine-coupling on Sensor Chip CM5, on the Fc2 channel. For amine-coupling, the sensor surface on both flow cells was activated for 7 min with a 1:1 mixture of 0.1 M EDC (1-ethyl-3-(3-dimethylaminopropyl) carbodiimide hydrochloride) and 0.1 M NHS (N-hydroxysuccinimide) at a flow rate of 5 μl/min. Immobilization of CKAP4 proteins (on Fc2) was performed in 10 mM sodium acetate buffer, at either pH 4.5, 5.0, or 5.5 based on preliminary pH scouting runs, for optimal binding. Unreacted NHS groups were quenched with a 7 min injection of 1 M ethanolamine pH 8.5. The Fc1 channel was treated similarly but without CKAP4 and served as a reference. Upon stabilization of the baseline signal, multi-cycle kinetics assays were performed with injections of as-APF as analyte at various concentrations (2.5–40 μM) in running buffer at 30 μl/min for 2 min, immediately followed by a 3 min dissociation phase. […] The data were analyzed using Biacore Evaluation software V2.0. […]

Substance: Neu5Acα2 − 3Galβ1 − 3GalNAcα-O-TVPAAVVVA [APF]
- binding: did not bind robustly
